PubChem BioAssay (NCI)
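Test compounds were applied to cells in 96-well plates for 48 hours at 5 doses. Here, GI50 denotes the concentration required for 50% inhibition of growth. TGI denotes the concentration required for complete inhibition of growth.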

Experiments:
Assay in all cases: NCI tumour cell line growth inhibition, 48 h
SF-295 CNS = system: SF-295 CNS
SK-MEL-5 melanoma = system: SK-MEL-5 melanoma
IGROV1 ovarian = system: IGROV1 ovarian
CAKI-1 renal = system: CAKI-1 renal
SF-268 CNS = system: SF-268 CNS
T-47D breast = system: T-47D breast
BT-549 breast = system: BT-549 breast
SW-620 colon = system: SW-620 colon
RXF 393 renal = system: RXF 393 renal
HT29 colon = system: HT29 colon
OVCAR-8 ovarian = system: OVCAR-8 ovarian
UACC-62 melanoma = system: UACC-62 melanoma
U251 CNS = system: U251 CNS
ACHN renal = system: ACHN renal
COLO 205 colon = system: COLO 205 colon
SF-539 CNS = system: SF-539 CNS
MDA-MB-468 breast = system: MDA-MB-468 breast
PC-3 prostate = system: PC-3 prostate
LOX IMVI melanoma = system: LOX IMVI melanoma
M14 melanoma = system: M14 melanoma
OVCAR-4 ovarian = system: OVCAR-4 ovarian
HL-60(TB) leukemia = system: HL-60(TB) leukemia
UO-31 renal = system: UO-31 renal
A549 NSCLC = system: A549 NSCLC
A498 renal = system: A498 renal
HCT-116 colon = system: HCT-116 colon
OVCAR-5 ovarian = system: OVCAR-5 ovarian
NCI-H226 lung = system: NCI-H226 lung
SN12C renal = system: SN12C renal
NCI-H522 lung = system: NCI-H522 lung
HOP-62 NSCLC = system: HOP-62 NSCLC
UACC-257 melanoma = system: UACC-257 melanoma
NCI/ADR-RES ovarian = system: NCI/ADR-RES ovarian
HOP-92 NSCLC = system: HOP-92 NSCLC
OVCAR-3 ovarian = system: OVCAR-3 ovarian
MCF7 breast = system: MCF7 breast
SK-OV-3 ovarian = system: SK-OV-3 ovarian
SK-MEL-28 melanoma = system: SK-MEL-28 melanoma
HCT-15 colon = system: HCT-15 colon
KM12 colon = system: KM12 colon
SK-MEL-2 melanoma = system: SK-MEL-2 melanoma
786-0 renal = system: 786-0 renal
SR leukemia = system: SR leukemia
RPMI-8226 leukemia = system: RPMI-8226 leukemia
HS 578T breast = system: HS 578T breast
SNB-75 CNS = system: SNB-75 CNS
NCI-H23 lung = system: NCI-H23 lung
HCC-2998 colon = system: HCC-2998 colon
NCI-H460 lung = system: NCI-H460 lung
CCRF-CEM leukemia = system: CCRF-CEM leukemia
MALME-3M melanoma = system: MALME-3M melanoma
MOLT-4 leukemia = system: MOLT-4 leukemia
MDA-MB-435 = system: MDA-MB-435
DU-145 prostate = system: DU-145 prostate
TK-10 renal = system: TK-10 renal
K-562 leukemia = system: K-562 leukemia
MDA-MB-231 breast = system: MDA-MB-231 breast
EKVX NSCLC = system: EKVX NSCLC
SNB-19 CNS = system: SNB-19 CNS

With O=C1NC(=NC23CC4CC(CC(C4)C2)C3)N/C1=C\c1ccc2ncccc2n1 the GI50 (SF-295 CNS) was 0.251 µM, the TGI (SF-295 CNS) was 4.59 µM and the GI50 (SK-MEL-5 melanoma) was 0.425 µM. It also gave a TGI (SK-MEL-5 melanoma) of 1.85 µM, a GI50 (IGROV1 ovarian) of 0.257 µM and a TGI (IGROV1 ovarian) of 1.41 µM. The GI50 (CAKI-1 renal) was 0.234 µM, the TGI (CAKI-1 renal) was 1.2 µM and the GI50 (SF-268 CNS) was 0.608 µM. The TGI (SF-268 CNS) was 5.63 µM, the GI50 (T-47D breast) was 0.238 µM and the TGI (T-47D breast) was 5.38 µM. It also gave a GI50 (BT-549 breast) of 0.163 µM, a TGI (BT-549 breast) of 0.687 µM and a GI50 (SW-620 colon) of 0.425 µM. For the same molecule, the TGI (SW-620 colon) was 6.42 µM, the GI50 (RXF 393 renal) was 0.239 µM and the TGI (RXF 393 renal) was 0.995 µM. It also gave a GI50 (HT29 colon) of 0.833 µM, a TGI (HT29 colon) of 3.68 µM and a GI50 (OVCAR-8 ovarian) of 0.632 µM. For the same molecule, the TGI (OVCAR-8 ovarian) was 5.73 µM, the GI50 (UACC-62 melanoma) was 0.226 µM and the TGI (UACC-62 melanoma) was 0.739 µM. It also gave a GI50 (U251 CNS) of 0.555 µM, a TGI (U251 CNS) of 11.3 µM and a GI50 (ACHN renal) of 0.305 µM. For the same molecule, the TGI (ACHN renal) was 1.9 µM, the GI50 (COLO 205 colon) was 0.319 µM and the TGI (COLO 205 colon) was 2.94 µM. For the same molecule, the GI50 (SF-539 CNS) was 0.128 µM, the TGI (SF-539 CNS) was 1.11 µM and the GI50 (MDA-MB-468 breast) was 0.201 µM. The TGI (MDA-MB-468 breast) was 0.781 µM, the GI50 (PC-3 prostate) was 0.334 µM and the TGI (PC-3 prostate) was 6.23 µM. It also gave a GI50 (LOX IMVI melanoma) of 0.416 µM, a TGI (LOX IMVI melanoma) of 4.78 µM and a GI50 (M14 melanoma) of 0.352 µM. For the same molecule, the TGI (M14 melanoma) was 2.93 µM, the GI50 (OVCAR-4 ovarian) was 0.451 µM and the TGI (OVCAR-4 ovarian) was 3.09 µM. The GI50 (HL-60(TB) leukemia) was 0.565 µM, the TGI (HL-60(TB) leukemia) was 3.67 µM and the GI50 (UO-31 renal) was 0.233 µM. It also gave a TGI (UO-31 renal) of 1.97 µM, a GI50 (A549 NSCLC) of 0.398 µM and a TGI (A549 NSCLC) of 5.12 µM. The GI50 (A498 renal) was 0.175 µM, the TGI (A498 renal) was 0.902 µM and the GI50 (HCT-116 colon) was 0.25 µM. The TGI (HCT-116 colon) was 3.72 µM, the GI50 (OVCAR-5 ovarian) was 0.743 µM and the TGI (OVCAR-5 ovarian) was 5.43 µM. It also gave a GI50 (NCI-H226 lung) of 0.597 µM, a TGI (NCI-H226 lung) of 5.97 µM and a GI50 (SN12C renal) of 0.35 µM. The TGI (SN12C renal) was 4.57 µM, the GI50 (NCI-H522 lung) was 0.194 µM and the TGI (NCI-H522 lung) was 1.13 µM. The GI50 (HOP-62 NSCLC) was 0.514 µM, the TGI (HOP-62 NSCLC) was 4.54 µM and the GI50 (UACC-257 melanoma) was 0.652 µM. It also gave a TGI (UACC-257 melanoma) of 5.82 µM, a GI50 (NCI/ADR-RES ovarian) of 1.82 µM and a TGI (NCI/ADR-RES ovarian) of 7 µM. It also gave a GI50 (HOP-92 NSCLC) of 0.222 µM, a TGI (HOP-92 NSCLC) of 1.76 µM and a GI50 (OVCAR-3 ovarian) of 0.279 µM. The TGI (OVCAR-3 ovarian) was 1.59 µM, the GI50 (MCF7 breast) was 0.367 µM and the TGI (MCF7 breast) was 5.84 µM. The GI50 (SK-OV-3 ovarian) was 0.245 µM, the TGI (SK-OV-3 ovarian) was 1.4 µM and the GI50 (SK-MEL-28 melanoma) was 0.453 µM. The TGI (SK-MEL-28 melanoma) was 2.91 µM, the GI50 (HCT-15 colon) was 0.389 µM and the TGI (HCT-15 colon) was 6.88 µM. For the same molecule, the GI50 (KM12 colon) was 0.683 µM, the TGI (KM12 colon) was 9.84 µM and the GI50 (SK-MEL-2 melanoma) was 0.202 µM. The TGI (SK-MEL-2 melanoma) was 0.545 µM, the GI50 (786-0 renal) was 0.371 µM and the TGI (786-0 renal) was 2.35 µM. It also gave a GI50 (SR leukemia) of 0.224 µM, a TGI (SR leukemia) of 0.779 µM and a GI50 (RPMI-8226 leukemia) of 0.316 µM. For the same molecule, the TGI (RPMI-8226 leukemia) was 1.5 µM, the GI50 (HS 578T breast) was 0.222 µM and the TGI (HS 578T breast) was 1.23 µM. For the same molecule, the GI50 (SNB-75 CNS) was 0.0913 µM, the TGI (SNB-75 CNS) was 0.755 µM and the GI50 (NCI-H23 lung) was 0.283 µM. The TGI (NCI-H23 lung) was 1.08 µM, the GI50 (HCC-2998 colon) was 0.491 µM and the TGI (HCC-2998 colon) was 4.45 µM. The GI50 (NCI-H460 lung) was 0.51 µM, the TGI (NCI-H460 lung) was 5.28 µM and the GI50 (CCRF-CEM leukemia) was 0.299 µM. The TGI (CCRF-CEM leukemia) was 3.03 µM, the GI50 (MALME-3M melanoma) was 0.147 µM and the TGI (MALME-3M melanoma) was 0.897 µM. It also gave a GI50 (MOLT-4 leukemia) of 0.338 µM, a TGI (MOLT-4 leukemia) of 2.02 µM and a GI50 (MDA-MB-435) of 0.537 µM. The TGI (MDA-MB-435) was 5.14 µM, the GI50 (DU-145 prostate) was 0.462 µM and the TGI (DU-145 prostate) was 7.59 µM. For the same molecule, the GI50 (TK-10 renal) was 0.328 µM, the TGI (TK-10 renal) was 6.57 µM and the GI50 (K-562 leukemia) was 0.546 µM. For the same molecule, the TGI (K-562 leukemia) was over 33.6 µM, the GI50 (MDA-MB-231 breast) was 0.557 µM and the TGI (MDA-MB-231 breast) was 4.82 µM. The GI50 (EKVX NSCLC) was 0.321 µM, the TGI (EKVX NSCLC) was 2.81 µM and the GI50 (SNB-19 CNS) was 0.261 µM. For the same molecule, the TGI (SNB-19 CNS) was 4.21 µM.
